Values after ≈ are worked out from the molar mass of the structure shown.
Tests used:
Format in all cases: cell-based
[1] = system: MDA-MB-231 (mammary gland adenocarcinoma); assay: In vitro tumor growth inhibition (GI50, propidium iodide); details: Homo sapiens, 96 hrs
[2] = system: 1657L (Pancreas); assay: In vitro cytotoxic activity, 36 tumor cell lines panel; details: 96 hours
Method: (§1) Culture conditions and activity evaluations of Compound 1 against 36 cancer cell lines were done as described below. Results were expressed as the concentration of drug which inhibits 50% of the cell growth (IC50, calculated using the formula: [Ti/C]×100=−50).
(§2) The compound was dissolved at 10 mM in DMSO. Dilution in vehicle to concentrations of 30, 10, 3, 1 and 0.3 μM were prepared immediately before assays. Depending on the cell line's growth characteristics, 4000-10000 cells were plated in two 96-wells pates (day 0) and incubated for 16 hours. The following day, propidium iodide was added to one of the two plates. Test compound was added to the second plate, as well as vehicle control, and cells further incubated for 96 hours. The compound was tested at each concentration and in triplicates. The equivalent cell number was determined after adding propidium iodide by measuring the signal by fluorescence (Ti for test article, C for control).

[3] = system: 251L (Gastric); assay: as above; details: 96 hours
Method: as §1, §2

[4] = system: 393NL (Renal); assay: as above; details: 96 hours
Method: as §1, §2

[5] = system: 401NL (Mammary); assay: as above; details: 96 hours
Method: as §1, §2

[6] = system: 526L (Lung); assay: as above; details: 96 hours
Method: as §1, §2

[7] = system: 529L (Lung); assay: as above; details: 96 hours
Method: as §1, §2

[8] = system: 536L (Head & Neck); assay: as above; details: 96 hours
Method: as §1, §2

[9] = system: 899L (Ovarian); assay: as above; details: 96 hours
Method: as §1, §2

[10] = system: HCT116 (Colon); assay: as above; details: Homo sapiens, HCT-116, 96 hours
Method: as §1, §2

[11] = system: OVCAR3 (Ovarian); assay: as above; details: Homo sapiens, OVCAR-3, 96 hours
Method: as §1, §2

[12] = system: SF268 (CNS); assay: as above; details: Homo sapiens, SF-268, 96 hours
Method: as §1, §2

[13] = system: 36 cancer cell lines; assay: In vitro cytotoxic activity, mean of all cell lines of the panel; details: mean over the 36 cell lines
Method: as §1, §2

[14] = system: Staphylococcus aureus MRS3 (ATCC™ 700699); assay: Antibacterial activity, MIC (NCCLS M7-A5); details: MH medium, 35° C., 16 to 20 hours
[15] = system: Enterococcus faecalis VRE-1 (ATCC™ 29212); assay: Antibacterial activity, MIC (NCCLS M7-A5); details: BHI+ medium, 35° C., 16 to 20 hours
[16] = system: Streptococcus pneumoniae PenR (LSPQ 3349); assay: Antibacterial activity, MIC (NCCLS M7-A5); details: MH medium +2% lysed horse blood
[17] = system: Saccharomyces cerevisiae FHCRC-50014; assay: Antifungal activity, MIC (NCCLS M27-A); details: FHCRC50014, after 24 hours, YPD medium
Method: (§3) Testing of antifungal activity was performed according to NCCLS method (NCCLS. Reference Method for Broth Dilution Antifungal Susceptibility Testing of Yeasts; Approved Standard. NCCLS document M27-A (ISBN 1-56238-328-0). NCCLS, 940 West Valley Road, Suite 1400, Wayne, Pa. 19087-1898 USA; www.nccls.org.). Compound 1 was prepared as 100× stock solutions in DMSO, with concentrations ranging from 3.2 mg/mL to 0.003 mg/mL (a two-fold dilution series over 11 points). An aliquot of each 100× stock solution was diluted 50-fold in test medium described below to give a set of eleven (11) 2× solutions. 50 μL of each of the eleven 2× solutions was aliquoted into the corresponding well of a 12-well row, with the final well reserved for medium alone control. Inoculum density for each indicator strain was adjusted to OD600=0.1 in 5 mL 0.85% saline, then further diluted 1/1000 in YPD medium. 50 μL of the final dilution (in test medium) of each indicator strain was added to each well of a 12-well row. This brings the final dilution of the test article or control compound in solution to 1×. The final inoculum was approximately 5×10^4 CFU/ml.
(§4) Bacterial strains Streptococcus pneumoniae LSPQ 3412 and LSPQ 3349 were obtained from the “Laboratoire de Sante Publique du Quebec”. Saccharomyces cerevisiae FHCRC-50014 and FHCRC-50514 were obtained from the “Fred Hutchison Cancer Research Center”.

[18] = system: Saccharomyces cerevisiae FHCRC-50514; assay: Antifungal activity, MIC (NCCLS M27-A); details: FHCRC50514, after 24 hours, YPD medium
Method: as §3, §4

`CCC(C)c1cc2c(=O)c3ccc4c(OC)c5c(=O)c6c(O)ccc(O)c6c(=O)c5c(O)c4c3c(=O)c2c(=O)n1CC(=O)N1CC(C(=O)O)NC(=O)C1C` (stereo not drawn) [Compound 1] gave a GI50 [1] of 14.6 µM, an IC50 [2] of 20 µM and an IC50 [3] of 0.72 µM. The IC50 [4] was 9.08 µM, the IC50 [5] was < 0.41 µM and the IC50 [6] was 3.09 µM. For the same molecule, the IC50 [7] was 2.2 µM, the IC50 [8] was 22.5 µM and the IC50 [9] was 34.9 µM. The IC50 [10] was 8.24 µM, the IC50 [11] was 26.2 µM and the IC50 [12] was 1.52 µM. For the same molecule, the IC50 [13] was 9.34 µM, the MIC [14] was 0.016 µg/mL (≈ 0.0217 µM) and the MIC [15] was 0.063 µg/mL (≈ 0.0854 µM). For the same molecule, the MIC [16] was 4 to 16 µg/mL (≈ 5.42 to 21.7 µM), the MIC [17] was 8 µg/mL (≈ 10.8 µM) and the MIC [18] was 8 µg/mL (≈ 10.8 µM).

— patent publication US20060106028A1, “Polycyclic aromatics and derivatives thereof and processes for their preparation” (priority 2004, published 2006)
